This is an account of results in patent publication US20250186430A1, “THERAPY OF INTEROCEPTION DISORDERS WITH CGRP RECEPTOR ANTAGONISTS” (priority 2022, published 2025).

Each structure is given as a SMILES string.

The subject of data set [1] is rats exposed to the chemotherapeutic drug cisplatin. Nature of the data set: cisplatin model of malaise due to antineoplastic chemotherapy. Conditions: cisplatin 6 mg/kg intraperitoneal, gepant 10 mg/kg orally, daily, starting two days before cisplatin. The class given is in vivo. As for the experimental part:
FIG. 1. Effect of rimegepant, ubrogepant, atogepant and zavegepant (10 mg/kg orally, daily, starting two days before cisplatin) on food consumption/anorexia, weight loss and weight body recovery in rats exposed to cisplatin (6 mg/kg, intraperitoneal), as an experimental model of malaise due to antineoplastic chemotherapy. * p<0.05, ** p<0.01, *** p<0.001, vs control, ANOVA and Tukeys post hoc test.

Data set [2] relates to mice with chronic arthritis due to injection of Freund's adjuvant. Nature of the data set: chronic arthritis (Freund's adjuvant) model of malaise due to chronic pain. The class given is in vivo. The conditions noted are these: gepant 10 mg/kg orally, daily, starting two days before arthritis induction. Here is the method:
FIG. 2. Effects of rimegepant, ubrogepant, atogepant and zavegepant (10 mg/kg orally, daily, starting two days before arthritis induction) on food consumption/anorexia, weight loss and spontaneous motility in mice with chronic arthritis due to injection of Freund's adjuvant as an experimental model of malaise due to chronic pain. * p<0.05, ** p<0.01, *** p<0.001 vs Arthritis, ANOVA and Tukeys post hoc test.

Data set [3] has as its system rats subjected to laparotomy and gut manipulation. Nature of the data set: laparotomy and gut manipulation model of malaise due to abdominal surgery. In kind it is in vivo. The conditions noted are these: gepant 10 mg/kg orally, daily, starting two days before surgery. As for the experimental part:
FIG. 3. Effects of rimegepant, ubrogepant, atogepant and zavegepant (10 mg/kg orally, daily, starting two days before surgery) on body weight loss and food consumption/anorexia in rats subjected to laparotomy and gut manipulation as an experimental model of malaise due to abdominal surgery. * p<0.05, ** p<0.01, *** p<0.001 vs Laparotomy, ANOVA and Tukeys post hoc test.

In data set [4] the test system is rats treated with carbon tetrachloride. The experiment in a line: carbon tetrachloride model of malaise due to hepatopathy. Conditions: gepant 10 mg/kg orally, daily, starting two days before carbon tetrachloride. The class given is in vivo. As for the experimental part:
Further, we have tested the gepants in a model of hepatopathy, a condition that typically prompts asthenia, weight loss and anhedonia.
FIG. 4. Effects of rimegepant, ubrogepant, atogepant and zavegepant (10 mg/kg orally, daily, starting two days before carbon tetrachloride) on body weight loss and sweet water consumption in rats treated with carbon tetrachloride as a model of malaise due to hepatitis/hepatopathy. * p<0.05, ** p<0.01, *** p<0.001 vs Hepatitis, ANOVA and Tukeys post hoc test.

Data set [5] deals with rats injected with cerulein. Nature of the data set: cerulein model of pancreatitis. The class given is in vivo. The conditions noted are these: gepant 10 mg/kg orally, daily, starting two days before cerulein treatment. As for the experimental part:
FIG. 5. Effects of rimegepant, ubrogepant, atogepant and zavegepant (10 mg/kg orally, daily, starting two days before cerulein treatment) on body weight loss and spontaneous motility in rats injected with cerulein as an experimental model of pancreatitis. * p<0.05, ** p<0.01, *** p<0.001 vs Pancreatitis, ANOVA and Tukeys post hoc test.

In data set [6] the test system is rats treated with a diet containing 0.75% adenine. The experiment in a line: 0.75% adenine diet model of renal insufficiency. In kind it is in vivo. The conditions noted are these: gepant 10 mg/kg orally, daily, starting two days before nephrotoxic diet. As for the experimental part: Further, we have tested the gepants in rats treated with a diet containing 0.75% adenine as an experimental model of renal insufficiency.
FIG. 6. Effects of rimegepant, ubrogepant, atogepant and zavegepant (10 mg/kg orally, daily, starting two days before exposure to the nephrotoxic diet) on body weight loss and food consumption/anorexia in rats exposed to a diet containing 0.75% adenine as an experimental model of renal insufficiency. *p<0.05, ** p<0.01, *** p<0.001 vs Kidney Failure, ANOVA and Tukeys post hoc test.

The test system of data set [7] is mice sensitized and re-challenged with ovalbumin. Nature of the data set: ovalbumin model of asthma or chronic obstructive pulmonary disease. The class given is in vivo. The conditions noted are these: gepant 10 mg/kg orally, daily, starting two days before antigen rechallenge. As for the experimental part:
FIG. 7. Effects of rimegepant, ubrogepant, atogepant and zavegepant (10 mg/kg orally, daily, starting two days before antigen rechallenge) on spontaneous motility, body weight loss and sweet water ingestion of mice sensitized and re-challenged with ovalbumin as a model of asthma or chronic obstructive pulmonary disease. * p<0.05, ** p<0.01, *** p<0.001 vs […], ANOVA and Tukeys post hoc test.

Data set [8] relates to rats injected with Yoshida hepatoma. Nature of the data set: Yoshida hepatoma model of malaise due to tumor cachexia. The class given is in vivo. Conditions: gepant 10 mg/kg orally, daily, starting two days before tumor injection. As for the experimental part:
As additional models of malaise due to interoceptive information, we have adopted those of tumor cachexia and sepsis.
FIG. 8. Effects of rimegepant, ubrogepant, atogepant and zavegepant (10 mg/kg orally, daily, starting two days before tumor injection) on body weight loss, muscle mass and food consumption/anorexia in rats injected with Yoshida hepatoma, as classic model of malaise due to tumor cachexia. * p<0.05, ** p<0.01, *** p<0.001. **** p<0.0001 vs Hepatoma, ANOVA and Tukeys post hoc test.

Data set [9] concerns rats injected intraperitoneally with lipopolysaccharides from Salmonella Typhimurium. The experiment in a line: lipopolysaccharide model of malaise due to sepsis/systemic immune activation. In kind it is in vivo. The conditions noted are these: gepant 10 mg/kg orally, daily, starting two days before lipopolysaccharides injection. Here is the method:
FIG. 9. Effects of rimegepant, ubrogepant, atogepant and zavegepant (10 mg/kg orally, daily, starting two days before lipopolysaccharides injection) on body weight loss and food consumption/anorexia in rats injected intraperitoneally with lipopolysaccharides from Salmonella Typhimurium as a classic model of malaise due to sepsis/systemic immune activation. * p<0.05, ** p<0.01, vs Sepsis, ANOVA and Tukeys post hoc test.

The conditions of data set [10]: background art; cited from earlier work.
The conditions of data set [11]: background art; cited from earlier work. The source holds these as a separate data set.

`Cc1cc(C[C@@H](NC(=O)N2CCC(c3cc4ccccc4[nH]c3=O)CC2)C(=O)N2CCN(C3CCN(C)CC3)CC2)cc2cn[nH]c12` [zavegepant]: in data set [1], the body weight loss entry is given as “reduces”, the food aversion/anorexia result is recorded as “reduces” and the weight body recovery result is on record as “accelerates”. Besides, in data set [2], the food aversion/anorexia entry is “reduces”, the spontaneous motility result is “increases” and the weight loss entry was “reduces”. Besides, in data set [3], the food aversion/anorexia result is given as “in part” and the weight loss result was “completely prevents”. Besides, in data set [4], the “sweet water consumption (index of motivational behavior and reduced anhedonia)” value was “triggers an increase”; the weight loss result is “reduces”. Further, in [5], the “reduction in spontaneous motility” value is recorded as “prevents” and the weight loss result is reported as “prevents”. Also, in data set [6], the “decrease of food consumption/anorexia” value was “reduces” and the weight loss result is given as “reduces”. For the same molecule, in [7], the “decrease of sweet water consumption” value is “reduces”, the “spontaneous motility (parameter of malaise)” value is given as “reduces” and the weight loss entry is given as “reduces”. Further, in data set [8], the “loss of muscle mass” value is “counteracting”, the “reduction of food consumption/anorexia” value is on record as “counteracting” and the weight loss result is given as “reducing”. In data set [9], the “decrease of food consumption/anorexia” value is “reduces” and the weight loss entry is listed as “reduces”. Also, the hepatotoxicity result in data set [10] was “non-hepatotoxic”.

As to `N[C@@H]1c2cccnc2[C@H](OC(=O)N2CCC(n3c(=O)[nH]c4ncccc43)CC2)CC[C@H]1c1cccc(F)c1F` [rimegepant], in data set [1], the body weight loss entry is “reduces”, the food aversion/anorexia result is reported as “reduces” and the weight body recovery entry was “accelerates”. Besides, in data set [2], the food aversion/anorexia result is recorded as “reduces”, the spontaneous motility result was “increases” and the weight loss entry is recorded as “reduces”. For the same molecule, in [3], the food aversion/anorexia result was “in part” and the weight loss result is on record as “completely prevents”. Besides, in data set [4], the “sweet water consumption (index of motivational behavior and reduced anhedonia)” value was “triggers an increase”; the weight loss entry is “reduces”. In data set [5], the “reduction in spontaneous motility” value was “prevents” and the weight loss result is on record as “prevents”. Further, in data set [6], the “decrease of food consumption/anorexia” value is given as “reduces” and the weight loss result is listed as “reduces”. In data set [7], the “decrease of sweet water consumption” value is on record as “reduces”, the “spontaneous motility (parameter of malaise)” value was “reduces” and the weight loss entry is listed as “reduces”. Further, in data set [8], the “loss of muscle mass” value is “counteracting”, the “reduction of food consumption/anorexia” value was “counteracting” and the weight loss entry is “reducing”. In addition, in [9], the “decrease of food consumption/anorexia” value was “reduces” and the weight loss entry is “reduces”. Moreover, the hepatotoxicity result in [10] was “non-hepatotoxic”.

With `C[C@@H]1[C@H](c2ccccc2)C[C@H](NC(=O)c2cnc3c(c2)C[C@@]2(C3)C(=O)Nc3ncccc32)C(=O)N1CC(F)(F)F` [ubrogepant], in data set [1], the body weight loss entry was “reduces”, the food aversion/anorexia result is given as “reduces” and the weight body recovery result was “accelerates”. In data set [2], the food aversion/anorexia result is on record as “reduces”, the spontaneous motility result was “increases” and the weight loss entry is “reduces”. In data set [3], the food aversion/anorexia entry is listed as “in part” and the weight loss entry is given as “completely prevents”. Further, in data set [4], the “sweet water consumption (index of motivational behavior and reduced anhedonia)” value is recorded as “triggers an increase”; the weight loss entry is listed as “reduces”. Besides, in [5], the “reduction in spontaneous motility” value was “prevents” and the weight loss entry is given as “prevents”. Further, in data set [6], the “decrease of food consumption/anorexia” value was “reduces” and the weight loss entry is reported as “reduces”. Moreover, in data set [7], the “decrease of sweet water consumption” value is recorded as “reduces”, the “spontaneous motility (parameter of malaise)” value is given as “reduces” and the weight loss entry is “reduces”. Moreover, in data set [8], the “loss of muscle mass” value was “counteracting”, the “reduction of food consumption/anorexia” value is given as “counteracting” and the weight loss entry is reported as “reducing”. Further, in [9], the “decrease of food consumption/anorexia” value is reported as “reduces” and the weight loss result is given as “reduces”. Further, in data set [10], the hepatotoxicity result was “non-hepatotoxic”.

Take `O=C(N[C@@H]1CC[C@@H](c2cccc(F)c2F)CN(CC(F)(F)F)C1=O)N1CCC(n2c(=O)[nH]c3ncccc32)CC1` [telcagepant]: the hepatotoxicity result in [10] is “occurrence of hepatotoxicity”. The “efficacy as anti-migraine drugs” value in [11] is recorded as “proved efficacious”.

In the case of `NCCCC[C@H](NC(=O)[C@@H](Cc1cc(Br)c(O)c(Br)c1)NC(=O)N1CCC(N2Cc3ccccc3NC2=O)CC1)C(=O)N1CCN(c2ccncc2)CC1` [olcegepant], the hepatotoxicity result in data set [10] is reported as “occurrence of hepatotoxicity”. In addition, in data set [11], the “efficacy as anti-migraine drugs” value is recorded as “proved efficacious”.

With `C[C@@H]1[C@H](c2c(F)ccc(F)c2F)C[C@H](NC(=O)c2cnc3c(c2)C[C@@]2(C3)C(=O)Nc3ncccc32)C(=O)N1CC(F)(F)F` [atogepant], in [1], the body weight loss result is recorded as “reduces”, the food aversion/anorexia result is listed as “reduces” and the weight body recovery entry was “accelerates”. In addition, in [2], the food aversion/anorexia entry was “reduces”, the spontaneous motility result is “increases” and the weight loss entry was “reduces”. Besides, in data set [3], the food aversion/anorexia result is “in part” and the weight loss entry is on record as “completely prevents”. In data set [4], the “sweet water consumption (index of motivational behavior and reduced anhedonia)” value is given as “triggers an increase”; the weight loss result is recorded as “reduces”. In addition, in data set [5], the “reduction in spontaneous motility” value was “prevents” and the weight loss result is reported as “prevents”. Further, in data set [6], the “decrease of food consumption/anorexia” value is reported as “reduces” and the weight loss entry was “reduces”. Also, in data set [7], the “decrease of sweet water consumption” value is given as “reduces”, the “spontaneous motility (parameter of malaise)” value was “reduces” and the weight loss entry was “reduces”. For the same molecule, in data set [8], the “loss of muscle mass” value was “counteracting”, the “reduction of food consumption/anorexia” value is recorded as “counteracting” and the weight loss entry is “reducing”. Moreover, in data set [9], the “decrease of food consumption/anorexia” value is “reduces” and the weight loss result is reported as “reduces”. Also, the hepatotoxicity entry in data set [10] was “non-hepatotoxic”.
